According to patent US20240245712A1, “METHODS AND MATERIALS FOR IDENTIFYING AND TREATING MEMBRANOUS NEPHROPATHY” (Mayo Foundation for Medical Education and Research, priority 2023, published 2024):

System: syphilis-associated membranous nephropathy (nephrotic syndrome)
Test: Follow-up of syphilis-associated NDNF-positive membranous nephropathy patients treated with antibiotics
Type: in vivo, human
Experimental: Biopsies for diagnosis were evaluated. The diagnosis of MN was confirmed by light microscopy (LM), immunofluorescence (IF) microscopy including PLA2R studies, and electron microscopy (EM). The clinical information was obtained from the accompanying charts. For detection of novel proteins, MS/MS was performed in 250 cases of PLA2R-negative cases (discovery cohort) that included cases used for identification of EXT1/EXT2, NELL1, SEMA3B, PCDH7, and FAT1 (Sethi et al., J. Am. Soc. Nephrol., 30:1123-1136 (2019); Sethi et al., Kid. Int., 97:163-174 (2020); Sethi et al., Kid. Int., 98:1253-1265 (2020); Sethi et al., J. Am. Soc. Nephrol., 32:1249-1261 (2021); and Sethi et al., J. Am. Soc. Nephrol., 33:1033-1044 (2022)). A NDNF polypeptide was detected in 3 cases of PLA2R-negative MN (NDNF-associated MN) by MS/MS. All 3 cases were negative for spectral counts for THSD7A, EXT1/EXT2, NELL1, SEMA3B, HTRA1, CNTN1, NCAM1, PCDH7, and FAT1 while baseline spectral counts for PLA2R were present in 2 of the 3 cases.
Using MS/MS, 14 cases of hepatitis B-associated MN and 5 cases of syphilis-associated MN were screened for MN antigens (validation cohort). Tissue from 4 cases (cases 4-7) of syphilis-associated MN were obtained from Cedars Sinai Medical Center and one case (cases 8-9) from Mayo Clinic. Cases 8 and 9 were from the same patient who was biopsied twice, 3 months apart. […]

**Q.** penicillin was tested. Which “Repeat kidney biopsy finding after treatment” value (Case 8, repeat biopsy 3 months later, after complete remission) did it give?
**A.** The value was “continued to show membranous nephropathy”.

**Q.** And the “Outcome of the nephrotic syndrome after antibiotic treatment” value (patients with syphilis and NDNF-associated MN, follow-up available in 4 of the 6 cases of syphilis)?
**A.** The value was “complete remission”.
